Assay results published in patent US20190209569A1, “PHARMACEUTICAL COMPOSITION FOR SUPPRESSING APPETITE, CONTAINING N2-(M-TRIFLUOROBENZYL), N6-(P-NITROBENZYL)PURINE (TNP) OR PHARMACEUTICALLY ACCEPTABLE SALT THEREOF AS ACTIVE INGREDIENT” (priority 2016, published 2019).

Tests used:
weight gaining = experiment: Effect of single administration of TNP in the third ventricle on weight control; type: in vivo, mouse; conditions: mice fasted for 18 hours; single administration of 0.4 pg, 0.04 ng or 0.4 ng into the third ventricle; observed for 24 hours; FIG. 2
Procedure: (§1) Adult male C57BL/6 mice were purchased from Orient Bio (Gyeonggi-do, Korea) and the mice were allowed to take the standard diet (Agri Purina, Seoul, Korea) freely. The mice were raised in the controlled condition (temperature: 22±1° C., light/dark cycle: 12/12 hr (light condition: 8:00 am˜8:00 pm)). A cannula was intubated in the third ventricle of the mouse for the administration of TNP. For the cannulation, the mouse was anesthetized with a mixture of Zoletil and Rumpun (2:1 v/v, 10 μl/g weight) and then a permanent 26-gauge stainless steel cannula was inserted in the third ventricle of the mouse. The insertion position of the cannula was 1.8 mm back from the bregma and 5.0 mm down from the sagittal sinus. The exact cannulation site was confirmed by the positive dipsogenic response after the administration of angiotensin II (50 ng). Only those mice that were confirmed to have cannulae in the correct location were used for data analysis. After the 7 day recovery period, the mice were massaged every day for 1 week in order to minimize the stress response to the experiment.
The mice cannulated in Example 1 were fasted for 18 hours and then administered at different concentrations of TNP (0.4 pg, 0.04 ng, and 0.4 ng; Calbiochem) in the early light phase (9:00 am˜11:00 am). Before the administration, TNP was dissolved in 0.9% saline. […]

food intake = experiment: Effect of single administration of TNP in the third ventricle on food intake; type: in vivo, mouse
Procedure: as §1
The mice cannulated in Example 1 were fasted for 18 hours and then administered at different concentrations of TNP (0.4 pg, 0.04 ng, and 0.4 ng; Calbiochem) in the early light phase (9:00 am˜11:00 am). Before the administration, TNP was dissolved in 0.9% saline. 2 μl of the TNP dissolved in saline at different concentrations (0.4 pg, 0.04 ng, and 0.4 ng) was administered via the cannula into the third ventricle. For the control, the same amount of saline was administered.
5 mice treated with saline, 5 mice treated with 0.4 pg of TNP, 5 mice treated with 0.04 ng of TNP, and 4 mice treated with 0.4 ng of TNP were fasted for 18 hours as described in Example 2. TNP was administered once into the third ventricle of the mice. Then, the mice were allowed to take food freely and the food intake was measured for 24 hours.
All experimental values of the present invention were expressed as mean±standard error ([…]). Statistical analysis was performed by Student's t-test. […]

[1] = single administration into the third ventricle, 0.4 pg, 0.04 ng, 0.4 ng, vs saline

Compound: O=[N+]([O-])c1ccc(CNc2nc(NCc3cccc(C(F)(F)F)c3)nc3[nH]cnc23)cc1 [TNP, N2-(m-Trifluorobenzyl), N6-(p-nitrobenzyl)purine]
- weight gaining compared to the control mice treated with saline (weight gaining): significantly suppressed
- food intake compared to the mice administered with saline (food intake; male C57BL/6 mice fasted for 18 hours, single administration of 0.4 pg, 0.04 ng or 0.4 ng into the third ventricle, food intake measured for 24 hours, FIG. 1): significantly reduced
- time after administration at which the food intake reduction effect was still maintained (food intake; [1]): ≥ 24 h
- time after administration from which the food intake reduction effect was significant (food intake; [1]): 2 h
